According to patent publication US20110288086A1, “POLYCYCLIC QUINAZOLINES, PREPARATION THEREOF, AND USE THEREOF” (priority 2010, published 2011):

Experiments:
aurora kinase B = molecular target: T1, aurora kinase B (Homo sapiens, UniProt Q96GD4); experiment: Aurora kinase B inhibition in vitro (Invitrogen aurora kinase screening kit PV3174); type: biochemical
T1 construct: purchased Invitrogen PV3174

[1] = system: K562 human chronicity marrow leukemic cells; experiment: Tumor cell inhibition ratio, CCK-8 kit, K562; conditions: K562, read-out: Antiproliferative effect (inhibition ratio) K562
Excerpt: (§1) The inhibitory activities of the compounds on tumor cells in vitro

[2] = system: A549 human lung cancer cells; experiment: Tumor cell inhibition ratio, CCK-8 kit, A549; conditions: A549, read-out: Antiproliferative effect (inhibition ratio) A549
Excerpt: as §1

[3] = system: PC-3 human carcinoma of prostate; experiment: Tumor cell inhibition ratio, CCK-8 kit, PC-3; conditions: read-out: Antiproliferative effect (inhibition ratio) PC-3
Excerpt: as §1

[4] = system: Hut78 T-Lymphocytic Leukemia cells; experiment: Tumor cell inhibition ratio, CCK-8 kit, Hut78; conditions: Homo sapiens, HuT78, read-out: Antiproliferative effect (inhibition ratio) Hut-78
Excerpt: as §1

[5] = system: Hep3B2.1-7 human hepatoma carcinoma cells; experiment: Tumor cell inhibition ratio, CCK-8 kit, Hep3B; conditions: read-out: Antiproliferative effect (inhibition ratio) Hep3B
Excerpt: as §1

[6] = system: PANC-1 human pancreatic cancer cells; experiment: Tumor cell inhibition ratio, CCK-8 kit, PANC-1; conditions: PANC-1, read-out: Antiproliferative effect (inhibition ratio) PANC-1
Excerpt: as §1

[7] = system: Colo320 human rectal cancer cells; experiment: Tumor cell inhibition ratio, CCK-8 kit, Colo320; conditions: COLO 320, read-out: Antiproliferative effect (inhibition ratio) Colo320
Excerpt: as §1

[8] = system: Jurkat E6-1 human T-cell lymphoma; experiment: Tumor cell inhibition ratio, CCK-8 kit, Jurkat E6-1; conditions: Jurkat E6.1, read-out: Antiproliferative effect (inhibition ratio) E6-1
Excerpt: as §1

[9] = system: MDA-MB-435s human breast carcinoma cells; experiment: Tumor cell inhibition ratio, CCK-8 kit, MDA-MB-435s; conditions: read-out: Antiproliferative effect (inhibition ratio) 435s
Excerpt: as §1

EGFR tyrosine kinase = EGFR tyrosine kinase (Homo sapiens, UniProt P00533); experiment: EGFR tyrosine kinase inhibition in vitro (Invitrogen EGFR inhibitor screening kit PV3193)
EGFR tyrosine kinase, sequence (P00533 25-1210): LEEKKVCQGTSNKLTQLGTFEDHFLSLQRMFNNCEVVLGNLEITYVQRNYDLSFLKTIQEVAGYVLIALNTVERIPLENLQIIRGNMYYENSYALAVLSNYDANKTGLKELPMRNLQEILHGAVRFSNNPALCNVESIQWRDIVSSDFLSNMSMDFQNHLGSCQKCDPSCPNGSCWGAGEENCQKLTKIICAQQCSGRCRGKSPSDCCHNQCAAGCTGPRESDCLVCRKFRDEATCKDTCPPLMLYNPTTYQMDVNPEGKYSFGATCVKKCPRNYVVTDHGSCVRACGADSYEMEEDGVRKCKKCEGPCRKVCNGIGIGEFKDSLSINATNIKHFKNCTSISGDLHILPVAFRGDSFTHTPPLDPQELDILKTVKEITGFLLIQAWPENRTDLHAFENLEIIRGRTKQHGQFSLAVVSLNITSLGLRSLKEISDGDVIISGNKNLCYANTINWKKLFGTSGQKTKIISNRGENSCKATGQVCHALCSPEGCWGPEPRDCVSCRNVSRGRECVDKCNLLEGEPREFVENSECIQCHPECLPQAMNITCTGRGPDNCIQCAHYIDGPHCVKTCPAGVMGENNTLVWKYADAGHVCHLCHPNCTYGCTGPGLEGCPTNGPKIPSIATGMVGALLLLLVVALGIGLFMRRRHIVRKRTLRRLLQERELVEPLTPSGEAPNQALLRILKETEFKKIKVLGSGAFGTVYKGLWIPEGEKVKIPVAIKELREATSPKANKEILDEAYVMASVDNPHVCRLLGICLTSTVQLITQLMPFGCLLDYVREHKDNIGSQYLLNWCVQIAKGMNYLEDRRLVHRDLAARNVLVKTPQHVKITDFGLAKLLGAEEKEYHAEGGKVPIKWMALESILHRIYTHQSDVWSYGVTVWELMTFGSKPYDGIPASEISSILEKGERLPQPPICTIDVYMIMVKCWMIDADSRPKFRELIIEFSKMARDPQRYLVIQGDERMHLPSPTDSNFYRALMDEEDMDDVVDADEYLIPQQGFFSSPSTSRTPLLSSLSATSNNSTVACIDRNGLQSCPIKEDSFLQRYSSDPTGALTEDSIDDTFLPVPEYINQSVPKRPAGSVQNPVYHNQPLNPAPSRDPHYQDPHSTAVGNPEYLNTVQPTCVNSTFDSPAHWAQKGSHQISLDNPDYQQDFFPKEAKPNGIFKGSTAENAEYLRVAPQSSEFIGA
Excerpt: The inhibitory activities of EGFR tyrosine kinase in vitro
Erlotinib hydrochloride was used as a positive control drug.

T1 sequence (Q96GD4 whole entry): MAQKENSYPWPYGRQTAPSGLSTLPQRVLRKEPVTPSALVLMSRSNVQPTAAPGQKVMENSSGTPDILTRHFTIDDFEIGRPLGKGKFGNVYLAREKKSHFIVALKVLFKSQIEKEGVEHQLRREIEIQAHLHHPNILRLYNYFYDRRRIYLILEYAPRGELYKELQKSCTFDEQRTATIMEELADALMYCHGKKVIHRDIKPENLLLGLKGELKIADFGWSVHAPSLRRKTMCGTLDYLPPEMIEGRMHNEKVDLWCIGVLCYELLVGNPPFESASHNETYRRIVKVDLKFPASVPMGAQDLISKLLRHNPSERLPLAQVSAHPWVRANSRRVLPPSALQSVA

SMILES	The inhibition ratio of the compound on Aurora B(%) (aurora kinase B; 40 μM)	The inhibition ratio of the compound on Aurora B(%) (aurora kinase B; 200 μM)	inhibition at 10 µM [1] [%]	inhibition at 100 µM [1] [%]	inhibition at 10 µM [2] [%]	inhibition at 100 µM [2] [%]	inhibition at 10 µM [3] [%]	inhibition at 100 µM [3] [%]	inhibition at 10 µM [4] [%]	inhibition at 100 µM [4] [%]	inhibition at 10 µM [5] [%]	inhibition at 100 µM [5] [%]	inhibition at 10 µM [6] [%]	inhibition at 100 µM [6] [%]	inhibition at 10 µM [7] [%]	inhibition at 100 µM [7] [%]	inhibition at 10 µM [8] [%]	inhibition at 100 µM [8] [%]	inhibition at 10 µM [9] [%]	inhibition at 100 µM [9] [%]	also measured
C#Cc1cccc2c1CN1C=Nc3cc(OCCOC)c(OCCOC)cc3C1=N2.Cl [Compound V-4, 9-ethynyl-2,3-bis(2-methoxyethoxy)-8H-quinazolino[4,3-b]quinazoline hydrochloride trihydrate]	38.7	91.5	31.4	87.6	48.6	78.7	22.2	62.7	44.1	85	33.5	79	39.7	85.9	48.9	83.4	6.85	19.8	31.3	92.6	The inhibition ratio of the compound on EGFR(%) (EGFR tyrosine kinase; 40 μM): 48.7%; The inhibition ratio of the compound on EGFR(%) (EGFR tyrosine kinase; 200 μM): 93.2%
COCCOc1cc2c(cc1OCCOC)C1=Nc3cccc([N+](=O)[O-])c3CN1C=N2 [Compound V-5, 9-nitro-2,3-bis(2-methoxyethoxy)-8H-quinazolino[4,3-b]quinazoline]	35.1	74.6	23.6	78.3	59.8	92.5	32.5	63.6	43.8	63.5	22.3	54.4	17.1	80.3	51.7	84.9	34.8	78.9	48.9	87.2	The inhibition ratio of the compound on EGFR(%) (EGFR tyrosine kinase; 40 μM): 25.2%; The inhibition ratio of the compound on EGFR(%) (EGFR tyrosine kinase; 200 μM): 74.6%
COCCOc1cc2c(cc1OCCOC)C1=Nc3cccc(C#N)c3CN1C=N2 [Compound V-7, 9-cyano-2,3-bis(2-methoxyethoxy)-8H-quinazolino[4,3-b]quinazoline]	23.2	91.7	24.3	61.7	27.7	83.6	15.9	90.3	32.1	62.4	40.4	89.5	40.7	86.6	42.1	81.4	34.6	75.4	38	81.4	The inhibition ratio of the compound on EGFR(%) (EGFR tyrosine kinase; 40 μM): 36.2%; The inhibition ratio of the compound on EGFR(%) (EGFR tyrosine kinase; 200 μM): 80.5%
COCCOc1cc2c(cc1OCCOC)C1=Nc3cccc(C(F)(F)F)c3CN1C=N2 [Compound V-9, 9-trifluoromethyl-2,3-bis(2-methoxyethoxy)-8H-quinazolino[4,3-b]quinazoline]	17.6	60.5	34.6	79.9	33.7	87.5	16.4	78	19.2	70.5	40.1	82.8	11.7	55.6	46.3	73.3	20.4	65.4	54.9	80.7	The inhibition ratio of the compound on EGFR(%) (EGFR tyrosine kinase; 40 μM): 13.0%; The inhibition ratio of the compound on EGFR(%) (EGFR tyrosine kinase; 200 μM): 60.3%
